Assay results: patent US20230190695A1, “TRIBUTYRIN SUPPLEMENTATION PROVIDES BENEFITS FOR MENTAL WELLNESS, IMMUNE HEALTH AND FAT METABOLISM” (PHARMAVITE LLC, priority 2021, published 2023)

Tests used:
[1] = test system: combined microbiota of 10 healthy adult human donors; assay: Colonic simulation, in vitro gut simulation model: butyrate and microbial metabolites; set-up: Indole-3-acetic acid / Indole-3-aldehyde / Indole-3-ethanol / Tryptophan / 5-Hydroxyindoleacetic acid / Tryptamine: unit not given here; details: for 1-Acetyl-3-indolecarboxyaldehyde / 5-Hydroxyindoleacetic acid / Indole / Indole-3-acetic acid / Indole-3-acrylic acid / Melatonin / Serotonin / Skatole / Tryptamine / Tryptophan / Indole-3-ethanol / Indole-3-aldehyde / Indole-3-propionic acid: Treatment; for average increase of butyrate as compared to the control period / average increase of butyrate: highest dose (59% of 1000 mg/day); for average increase of butyrate: vs control period
Procedure: The impact of two doses of tributyrin on gut microbiota composition and microbial metabolites was studied in an in vitro gut simulation model using combined microbiota of 10 healthy adult human donors (5 males, 5 females, 30-60 years old, BMI<30). The retention times and pH ranges were optimized in order to obtain results that are representative for a full GIT simulation. A stabilization period was followed by a two-week control period and three weeks of treatment, where 59% of 300 mg/day or 59% of 1000 mg/day was administered daily (based on release profile described above). Samples were collected at the end of control period and treatment period. Both doses were performed in biological triplicate to account for biological variability.

[2] = test system: combined microbiota of 10 healthy adult human donors; assay: Colonic simulation, in vitro gut simulation model: microbial composition
Procedure: The impact of two doses of tributyrin on gut microbiota composition and microbial metabolites was studied in an in vitro gut simulation model using combined microbiota of 10 healthy adult human donors (5 males, 5 females, 30-60 years old, BMI<30). The retention times and pH ranges were optimized in order to obtain results that are representative for a full GIT simulation. A stabilization period was followed by a two-week control period and three weeks of treatment, where 59% of 300 mg/day or 59% of 1000 mg/day was administered daily (based on release profile described above). Samples were collected at the end of control period and treatment period. Both doses were performed in biological triplicate to account for biological variability. […] Higher ratio of Bacteroidetes:Firmicutes is associated with lean phenotype. Tributyrin treatment increases this ratio as illustrated in FIG. 4 and therefore may provide metabolic health benefit. • At species level, importantly, Akkermansia muciniphila and Faecalibacterium prausnitzii were enriched in tributyrin-treated compartments. • Akkermansia muciniphila is an acetate and propionate-producing, mucin-degrading bacteria. Its presence in the gut is associated with health benefits. An inverse relationship- between colonization of Akkermansia muciniphila and inflammatory conditions or obesity have been shown. […] Both Parabacteroides distasonis and Parabacteroides goldsteinii were stimulated in the proximal colon and distal colon for both low and high doses of tributyrin.

[3] = test system: Caco-2/THP1 (colonic cells/macrophages) co-culture; assay: Caco-2/THP1 co-culture immunomodulation model; type: cell-based
Source text: An in vitro Caco-2/THP1 (colonic cells/macrophages) co-culture model was used to assess the effect of microbial metabolites on proinflammatory or ant-inflammatory cytokines and chemokines which serve as markers for immunomodulation.

C57BL/6J mice [4] = assay: Forced swim test (FST) after acute restraint stress; type: in vivo; details: for time immobile in the FST: combined female + male, study day 52; for immobility in the FST: vs sex-matched untreated stressed control
Procedure: (§1) A study was conducted to evaluate tributyrin on stress and mood-related behaviors in female and male C57BL/6J mice. The animals were given immediate ad libitum access to water and standard rodent chow and were acclimated to the facility for 7 days. On study day -3, fat and muscle content was measured using nuclear magnetic resonance spectroscopy (NMR: MiniSpec NMR, Bruker LF50 Body Composition Analyzer). On study day 0, the animals were weighed, blood and fecal samples (1-2 pellets/animal) were collected, and the animals were randomized into their specific treatment group. Daily oral gavage of 4 distinct groups commenced as follows: • Treatment 1: daily PBS vehicle + no acute stress before behavioral measures • Treatment 2: daily PBS vehicle + acute stress before behavioral measures • Treatment 3: daily low-dose tributyrin (60 mg/kg/d) + acute stress before behavioral measures • Treatment 4: daily high-dose tributyrin (200 mg/kg/d) + acute stress before behavioral measures
(§2) After 7 weeks of intervention, blood and fecal samples were collected on study day 49, and fecal collection was repeated on study days 50 and 52. On study day 52, animals assigned to the acute stress groups were acutely restrained for two hours while unstressed animals were housed singly for 140 minutes in fresh cages. […] All animals were then tested in the forced swim test (FST). A retro-orbital blood sample was collected within 15 to 30 minutes after the FST, and fecal pellets were collected (for corticosterone measurements). On study day 53, the animals were weighed, and body composition by NMR was performed a second time. The study was terminated on study day 56, blood was collected and necropsies were performed. Serum cytokine levels were evaluated in terminal serum.
Forced Swim Test (FST) is a test centered on a rodent’s response to unescapable stress. Results of this test have been interpreted as a measure of susceptibility to negative mood. It is commonly used to measure the effectiveness of antidepressants. Forced swim tests were performed on study day 52 for each cohort of mice.

C57BL/6J mice [5] = assay: Fecal corticosterone after forced swim test; type: in vivo; details: male mice; 200 mg/kg/d; vs stressed vehicle control
Procedure: as §1
After 7 weeks of intervention, blood and fecal samples were collected on study day 49, and fecal collection was repeated on study days 50 and 52. On study day 52, animals assigned to the acute stress groups were acutely restrained for two hours while unstressed animals were housed singly for 140 minutes in fresh cages. […] Serum cytokine levels were evaluated in terminal serum. […]

C57BL/6J mice [6] = assay: Body weight and body composition by NMR; type: in vivo; details: for final fat as a percentage of baseline: all mice, vs combined unstressed untreated control
Procedure: as §1, §2

C57BL/6J mice [7] = assay: Cytokine concentrations in terminal serum; type: in vivo; details: male mice
Procedure: as §1, §2

C57BL/6J mice [8] = assay: Fecal metabolite analysis (GC, UHPLC-HRMS); type: in vivo
Procedure: as §1, §2
Gut microbiota metabolizes ingested food and supplements in the colon thereby producing various metabolites, which have an impact on several host biological processes. These metabolites generated in the colon can be measured in the feces. A panel of metabolites were measured in feces collected from experimental mice 8 weeks post-treatment. Fecal SCFA were measured by Gas Chromatography (GC) and tryptophan metabolites were measured using Ultra High Performance Liquid Chromatography High Resolution Mass Spectrometry (UHPLC-HRMS). Comparisons were made between stressed untreated mice and tributyrin treated stressed mice.

[9] = Distal Colon, High Dose (59% of 1000 mg/day)
[10] = Distal Colon, Low Dose (59% of 300 mg/day)
[11] = Proximal Colon, High Dose (59% of 1000 mg/day)
[12] = Proximal Colon, Low Dose (59% of 300 mg/day)
[13] = proximal colon and distal colon, both low and high doses
[14] = DC-Low (distal colon, low dose)
[15] = PC-High (proximal colon, high dose)
[16] = PC-Low (proximal colon, low dose)
[17] = 60 mg/kg/d, vs stressed vehicle control
[18] = low dose (60 mg/kg/d), 8 weeks post-treatment

CCCC(=O)OCC(COC(=O)CCC)OC(=O)CCC [tributyrin]
1-Acetyl-3-indolecarboxyaldehyde [1, 9]: < LOD | 5-Hydroxyindoleacetic acid [1, 9]: 0.001 | Indole [1, 9]: < LOD | Indole-3-acetic acid [1, 9]: 0.644 | Indole-3-acrylic acid [1, 9]: < LOD | Melatonin [1, 9]: < LOD | Serotonin [1, 9]: < LOD | Skatole [1, 9]: < LOD | Tryptamine [1, 9]: 0.175 | Tryptophan [1, 9]: 0.095 | 1-Acetyl-3-indolecarboxyaldehyde [1, 10]: < LOD | 5-Hydroxyindoleacetic acid [1, 10]: 0.001 | Indole [1, 10]: < LOD | Indole-3-acrylic acid [1, 10]: < LOD | Indole-3-ethanol [1, 10]: 0.284 | Melatonin [1, 10]: < LOD | Serotonin [1, 10]: < LOD | Skatole [1, 10]: < LOD | Tryptamine [1, 10]: 0.205 | Tryptophan [1, 10]: 0.116 | 1-Acetyl-3-indolecarboxyaldehyde [1, 11]: < LOD | 5-Hydroxyindoleacetic acid [1, 11]: 0.008 | Indole [1, 11]: < LOD | Indole-3-acetic acid [1, 11]: 0.916 | Indole-3-acrylic acid [1, 11]: < LOD | Indole-3-aldehyde [1, 11]: 0.058 | Indole-3-propionic acid [1, 11]: 0.01 | Melatonin [1, 11]: < LOD | Serotonin [1, 11]: < LOD | Skatole [1, 11]: < LOD | Tryptamine [1, 11]: 0.105 | 1-Acetyl-3-indolecarboxyaldehyde [1, 12]: < LOD | 5-Hydroxyindoleacetic acid [1, 12]: 0.01 | Indole [1, 12]: < LOD | Indole-3-acrylic acid [1, 12]: < LOD | Indole-3-aldehyde [1, 12]: 0.06 | Indole-3-ethanol [1, 12]: 0.266 | Indole-3-propionic acid [1, 12]: 0.008 | Melatonin [1, 12]: < LOD | Serotonin [1, 12]: < LOD | Skatole [1, 12]: < LOD | Tryptamine [1, 12]: 0.118 | butyrate levels ([1]; both proximal colon and distal colon, on initiation of treatment): significantly enhanced | average increase of butyrate as compared to the control period ([1]; distal colon): 78.8% | average increase of butyrate ([1]; distal colon): 7.7 mM | average increase of butyrate as compared to the control period ([1]; proximal colon): 91.9% | average increase of butyrate ([1]; proximal colon): 7.4 mM | Faecalibacterium prausnitzii abundance ([2]; PC and DC, low and high dose): enriched | Akkermansia muciniphila abundance ([2]; PC and DC, low- and high-dose): enriched | gut microbial diversity (Simpson Diversity Index) ([2]; both low and high dose): increase | ratio of Bacteroidetes:Firmicutes ([2]; distal colon, low and high dose vs control (FIG. 4)): increases | Parabacteroides merdae ATCC 43184 abundance ([2]; proximal colon): specific stimulation | Tannerellaceae levels ([2]; proximal colon): increased | Parabacteroides distasonis abundance [2, 13]: stimulated | Parabacteroides goldsteinii abundance [2, 13]: stimulated | IL6, treatment suspensions normalized to blank control suspensions [3, 14]: 1.13 | IL10, treatment suspensions normalized to blank control suspensions [3, 14]: 1.03 | IL-1B, treatment suspensions normalized to blank control suspensions [3, 14]: 1.07 | MCP1, treatment suspensions normalized to blank control suspensions [3, 14]: 1.05 | IL6, treatment suspensions normalized to blank control suspensions [3, 15]: 1.31 | IL8, treatment suspensions normalized to blank control suspensions [3, 15]: 1.03 | IL-1B, treatment suspensions normalized to blank control suspensions [3, 15]: 1.08 | MCP1, treatment suspensions normalized to blank control suspensions [3, 15]: 0.97 | IL6, treatment suspensions normalized to blank control suspensions [3, 16]: 1.01 | IL8, treatment suspensions normalized to blank control suspensions [3, 16]: 1.3 | IL10, treatment suspensions normalized to blank control suspensions [3, 16]: 1.06 | IL-1B, treatment suspensions normalized to blank control suspensions [3, 16]: 1.08 | TNFa, treatment suspensions normalized to blank control suspensions [3, 16]: 1.06 | time immobile in the FST (C57BL/6J mice [4]; 60 mg/kg/d oral gavage, vs stressed untreated control): reductions in time immobile in the FST were statistically significant | immobility in the FST (C57BL/6J mice [4]; 60 mg/kg, females): reduced immobility | time immobile in the FST (C57BL/6J mice [4]; 200 mg/kg/d oral gavage, vs stressed untreated control and vs unstressed control): reductions in time immobile in the FST were statistically significant | immobility in the FST (C57BL/6J mice [4]; 200 mg/kg, males): reduced immobility | fecal corticosterone levels after FST (C57BL/6J mice [5]): statistical reduction | final fat as a percentage of baseline (C57BL/6J mice [6]; 60 mg/kg/d): statistically reduced | final fat as a percentage of baseline (C57BL/6J mice [6]; 200 mg/kg/d): statistically reduced | Lean:Fat ratio (C57BL/6J mice [6]; treated mice vs untreated control): significantly increased | IL-2 in terminal serum (C57BL/6J mice [7]; 60 mg/kg/d, vs stressed mice): reduced significantly | IL-4 in terminal serum (C57BL/6J mice [7]; 60 mg/kg/d, vs stressed mice): reduced significantly | IFNγ in terminal serum (C57BL/6J mice [7]; [17]): significantly reduced | MIP-1a in terminal serum (C57BL/6J mice [7]; [17]): significantly reduced | IL-4 in terminal serum (C57BL/6J mice [7]; 200 mg/kg/d, vs stressed mice): reduced significantly | MIP-1a in terminal serum (C57BL/6J mice [7]; 200 mg/kg/d, vs stressed vehicle control): significantly reduced | tryptophan in feces (C57BL/6J mice [8]; high dose (200 mg/kg/d), 8 weeks post-treatment): 142.8 ± 53.4 ng/mg | Indole-3-acetic acid in feces (C57BL/6J mice [8]; [18]): 1.56 ± 1.17 ng/mg | tryptophan in feces (C57BL/6J mice [8]; [18]): 154.9 ± 98.7 ng/mg | fecal SCFA levels (C57BL/6J mice [8]; treated mice vs untreated stressed controls): No differences
